Assay results published in patent US20230322767A1, “ARYL SUBSTITUTED PYRROLO-PYRIDINONES AND THERAPEUTIC USES THEREOF” (Bayer Aktiengesellschaft, priority 2020, published 2023).

What was measured:
CSNK1D = CSNK1D (Homo sapiens (Human), UniProt P48730); test: CSNK1D Assay (ADP-Glo, 1 μM ATP); assay type: biochemical; details: median, read-out: CSNK1D IC50 [mol/l] (median)
Method: CSNK1D-inhibitory activity of compounds of the present invention in presence of 1 μM adenosine-tri-phosphate (ATP) was quantified employing the CSNK1 D assay as described in the following paragraphs. In essence, the enzyme activity is measured by quantification of the adenosine-di-phosphate (ADP), which is generated as a co-product of the enzyme reaction, via the “ADP-Glo™ Kinase Assay” kit from the company Promega. This detection system works as follows: In a first step the ATP not consumed in the kinase reaction is quantitatively converted to cAMP employing an adenylate cyclase (“ADP-Glo-reagent”), then the adenylate cyclase is stopped and the ADP generated in the kinase reaction converted to ATP which generates in a luciferase-based reaction a glow-luminescence signal (“Kinase Detection Reagent”).
As substrate for the kinase reaction the biotinylated peptide Btn-Ahx-[…] (C-terminus in amide form) was used which can be purchased e.g. from the company Biosyntan (Berlin-Buch, Germany).
For the assay 50 nl of a 100 fold concentrated solution of the test compound in DMSO was pipetted into a white 1536-well microtiter plate (Greiner Bio-One, Frickenhausen, Germany), 2 μL of a solution of CSNK1D in aqueous assay buffer [50 mM HEPES pH 7.5, 10% (v/v) glycerol, 10 mM MgCl2, 50 mM NaCl, 1 mM dithiothreitol, 0.01% (w/v) bovine serum albumin, 0.01% (v/v) Triton X-100] were added and the mixture was incubated for 15 min at 22° C. to allow pre-binding of the test compounds to the enzyme before the start of the kinase reaction. […] The concentration of CSNK1D was adjusted depending of the activity of the enzyme lot and was chosen appropriate to have the assay in the linear range, a typical concentration is about 0.5 ng/μL. The reaction was stopped by the addition of 2.5 μL of “ADP-Glo-reagent” (1:1.5 fold diluted with water) and the resulting mixture was incubated at 22° C. for 1 h to convert the ATP not consumed in the kinase reaction completely […]. Subsequently 2.5 μL of the “kinase detection reagent” (1.2 fold more concentrated than recommended by the producer) were added, the resulting mixture was incubated at 22° C. for 1 h and then the luminescence measured with a suitable measurement instrument (e.g. Viewlux™ from Perkin-Elmer). The amount of emitted light was taken as a measure for the amount of ADP generated and thereby for the activity of the CSNK1D.

CSNK1A1 = CSNK1A1 (Homo sapiens (Human), UniProt P48729); test: CSNK1A1 Assay 2 (ADP-Glo, 1 μM ATP); assay type: biochemical; details: median, read-out: CSNK1A1 Assay 2 IC50 [mol/l] (median)
CSNK1A1, sequence (P48729 whole entry): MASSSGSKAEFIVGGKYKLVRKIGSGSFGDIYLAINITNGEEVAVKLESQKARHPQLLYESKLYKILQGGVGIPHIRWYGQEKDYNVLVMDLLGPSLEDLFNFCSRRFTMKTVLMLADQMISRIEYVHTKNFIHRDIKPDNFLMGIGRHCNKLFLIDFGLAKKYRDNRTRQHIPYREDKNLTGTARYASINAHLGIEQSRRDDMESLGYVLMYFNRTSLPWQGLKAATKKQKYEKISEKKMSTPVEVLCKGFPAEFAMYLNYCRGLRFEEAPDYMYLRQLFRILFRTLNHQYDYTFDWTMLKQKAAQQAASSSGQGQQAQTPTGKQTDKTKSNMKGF
Method: CSNK1A1-inhibitory activity of compounds of the present invention in presence of 1 μM adenosine-tri-phosphate (ATP) was quantified employing the CSNK1A1 assay as described in the following paragraphs. In essence, the enzyme activity is measured by quantification of the adenosine-di-phosphate (ADP), which is generated as a co-product of the enzyme reaction, via the “ADP-Glo™ Kinase Assay” kit from the company Promega. This detection system works as follows: In a first step the ATP not consumed in the kinase reaction is quantitatively converted to cAMP employing an adenylate cyclase (“ADP-Glo-reagent”), then the adenylate cyclase is stopped and the ADP generated in the kinase reaction converted to ATP which generates in a luciferase-based reaction a glow-luminescence signal (“Kinase Detection Reagent”).
As substrate for the kinase reaction the biotinylated peptide biotin-Ahx-KRRRAL-pS-VASLPGL (C-terminus in amide form) was used which can be purchased e.g. from the company Biosyntan (Berlin-Buch, Germany).
For the assay 50 nl of a 100 fold concentrated solution of the test compound in DMSO was pipetted into a white 1536-well microtiter plate (Greiner Bio-One, Frickenhausen, Germany), 2 μL of a solution of CSNK1A1 in aqueous assay buffer [50 mM HEPES pH 7.5, 10% (v/v) glycerol, 10 mM MgCl2, 50 mM NaCl, 1 mM dithiothreitol, 0.01% (w/v) bovine serum albumin, 0.01% (v/v) Triton X-100] were added and the mixture was incubated for 15 min at 22° C. to allow pre-binding of the test compounds to the enzyme before the start of the kinase reaction. […] The concentration of CSNK1A1 was adjusted depending of the activity of the enzyme lot and was chosen appropriate to have the assay in the linear range, a typical concentrations are about 0.0375 ng/μL. The reaction was stopped by the addition of 2.5 μL of “ADP-Glo-reagent” (1:1.5 fold diluted with water) and the resulting mixture was incubated at 22° C. for 1 h to convert the ATP not consumed in the kinase reaction completely […]. Subsequently 2.5 μL of the “kinase detection reagent” (1.2 fold more concentrated than recommended by the producer) were added, the resulting mixture was incubated at 22° C. for 1 h and then the luminescence measured with a suitable measurement instrument (e.g. Viewlux™ from Perkin-Elmer). The amount of emitted light was taken as a measure for the amount of ADP generated and thereby for the activity of the CSNK1A1.

CSNK1D, sequence (P48730 whole entry): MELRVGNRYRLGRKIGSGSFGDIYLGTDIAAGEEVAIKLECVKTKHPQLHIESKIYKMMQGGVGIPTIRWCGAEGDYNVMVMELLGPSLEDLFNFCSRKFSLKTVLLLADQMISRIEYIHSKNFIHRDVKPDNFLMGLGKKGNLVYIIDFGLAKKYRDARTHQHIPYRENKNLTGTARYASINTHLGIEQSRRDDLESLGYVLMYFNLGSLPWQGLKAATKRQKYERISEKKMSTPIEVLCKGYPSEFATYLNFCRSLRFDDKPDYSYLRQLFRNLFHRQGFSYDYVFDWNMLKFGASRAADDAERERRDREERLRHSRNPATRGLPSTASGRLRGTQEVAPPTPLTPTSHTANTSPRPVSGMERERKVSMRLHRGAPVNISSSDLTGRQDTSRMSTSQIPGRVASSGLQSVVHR

`Cn1cc(CC2CC2)c2[nH]c(-c3ccnc(NC(=O)C(CC(F)F)c4ccc(F)cc4)c3)c(-c3ccccc3)c2c1=O` (racemic) [Example 60, N-{4-[7-(cyclopropylmethyl)-5-methyl-4-oxo-3-phenyl-4,5-dihydro-1H-pyrrolo[3,2-c]pyridin-2-yl]pyridin-2-yl}-4,4-difluoro-2-(4-fluorophenyl)butanamide] gave an IC50 (CSNK1D) of 9.5 nM and an IC50 (CSNK1A1) of 15 nM.
With `CN1CC(CC2CC2)c2[nH]c(-c3ccnc(NC(=O)Cc4ccc(F)cc4)c3)c(-c3ccc(F)cc3)c2C1=O` (racemic) [Example 61, N-{4-[7-(cyclopropylmethyl)-3-(4-fluorophenyl)-5-methyl-4-oxo-4,5,6,7-tetrahydro-1H-pyrrolo[3,2-c]pyridin-2-yl]pyridin-2-yl}-2-(4-fluorophenyl)acetamide] the IC50 (CSNK1D) was 1.8 nM and the IC50 (CSNK1A1) was 2 nM.
`CC(C(=O)Nc1cc(-c2[nH]c3c(CC4CC4)cn(C)c(=O)c3c2-c2ccc(F)cc2)ccn1)c1ccc(F)cc1` (racemic) [Example 63, N-{4-[7-(cyclopropylmethyl)-3-(4-fluorophenyl)-5-methyl-4-oxo-4,5-dihydro-1H-pyrrolo[3,2-c]pyridin-2-yl]pyridin-2-yl}-2-(4-fluorophenyl)propanamide] showed an IC50 (CSNK1D) of 8 nM and an IC50 (CSNK1A1) of 12 nM.
`CN1CCc2[nH]c(-c3ccnc(NC(=O)C(CC(F)F)c4ccc(F)cc4)c3)c(-c3ccccc3)c2C1=O` (single isomer, unassigned) [Example 3, 4,4-difluoro-2-(4-fluorophenyl)-N-[4-(5-methyl-4-oxo-3-phenyl-4,5,6,7-tetrahydro-1H-pyrrolo[3,2-c]pyridin-2-yl)pyridin-2-yl]butanamide] gave an IC50 (CSNK1D) of 5.9 nM and an IC50 (CSNK1A1) of 4.7 nM.
`CN1CCc2[nH]c(-c3ccnc(NC(=O)C(CC(F)F)c4ccc(F)cc4)c3)c(-c3ccccc3)c2C1=O` (single isomer, unassigned) [Example 4, 4,4-difluoro-2-(4-fluorophenyl)-N-[4-(5-methyl-4-oxo-3-phenyl-4,5,6,7-tetrahydro-1H-pyrrolo[3,2-c]pyridin-2-yl)pyridin-2-yl]butanamide] gave an IC50 (CSNK1D) of 2.3 nM and an IC50 (CSNK1A1) of 1.1 nM.
Work on `CN1CCc2[nH]c(-c3ccnc(NC(=O)C(CC(F)F)c4ccc(F)cc4)c3)c(-c3cccnc3)c2C1=O` (single isomer, unassigned) [Example 10, 4,4-difluoro-2-(4-fluorophenyl)-N-{4-[5-methyl-4-oxo-3-(pyridin-3-yl)-4,5,6,7-tetrahydro-1H-pyrrolo[3,2-c]pyridin-2-yl]pyridin-2-yl}butanamide] yielded an IC50 (CSNK1D) of 64 nM and an IC50 (CSNK1A1) of 110 nM.
For `CN1CCc2[nH]c(-c3ccnc(NC(=O)C(CC(F)F)c4ccc(F)cc4)c3)c(-c3cccnc3)c2C1=O` (single isomer, unassigned) [Example 11, 4,4-difluoro-2-(4-fluorophenyl)-N-{4-[5-methyl-4-oxo-3-(pyridin-3-yl)-4,5,6,7-tetrahydro-1H-pyrrolo[3,2-c]pyridin-2-yl]pyridin-2-yl}butanamide], the IC50 (CSNK1D) was 4.7 nM and the IC50 (CSNK1A1) was 4.3 nM.
`Cn1cc(CC(F)(F)F)c2[nH]c(-c3ccnc(NC(=O)C(CC(F)F)c4ccc(F)cc4)c3)c(-c3ccc(F)cc3)c2c1=O` (single isomer, unassigned) [Example 27, 4,4-difluoro-2-(4-fluorophenyl)-N-{4-[3-(4-fluorophenyl)-5-methyl-4-oxo-7-(2,2,2-trifluoroethyl)-4,5-dihydro-1H-pyrrolo[3,2-c]pyridin-2-yl]pyridin-2-yl}butanamide] gave an IC50 (CSNK1D) of 5.8 nM and an IC50 (CSNK1A1) of 12 nM.
For `Cn1cc(CC(F)(F)F)c2[nH]c(-c3ccnc(NC(=O)C(CC(F)F)c4ccc(F)cc4)c3)c(-c3ccc(F)cc3)c2c1=O` (single isomer, unassigned) [Example 28, 4,4-difluoro-2-(4-fluorophenyl)-N-{4-[3-(4-fluorophenyl)-5-methyl-4-oxo-7-(2,2,2-trifluoroethyl)-4,5-dihydro-1H-pyrrolo[3,2-c]pyridin-2-yl]pyridin-2-yl}butanamide], the IC50 (CSNK1D) was 5 nM and the IC50 (CSNK1A1) was 6.1 nM.
`CC1(C)CNC(=O)c2c1[nH]c(-c1ccnc(NC(=O)C(CC(F)F)c3ccc(F)cc3)c1)c2-c1ccccc1` (single isomer, unassigned) [Example 44, N-[4-(7,7-dimethyl-4-oxo-3-phenyl-4,5,6,7-tetrahydro-1H-pyrrolo[3,2-c]pyridin-2-yl)pyridin-2-yl]-4,4-difluoro-2-(4-fluorophenyl)butanamide] was tested, and the IC50 (CSNK1D) was 12 nM and the IC50 (CSNK1A1) was 11 nM.
`CC1(C)CNC(=O)c2c1[nH]c(-c1ccnc(NC(=O)C(CC(F)F)c3ccc(F)cc3)c1)c2-c1ccccc1` (single isomer, unassigned) [Example 45, N-[4-(7,7-dimethyl-4-oxo-3-phenyl-4,5,6,7-tetrahydro-1H-pyrrolo[3,2-c]pyridin-2-yl)pyridin-2-yl]-4,4-difluoro-2-(4-fluorophenyl)butanamide] showed an IC50 (CSNK1D) of 2.7 nM and an IC50 (CSNK1A1) of 2 nM.
Molecule `CC(C(=O)Nc1cc(-c2[nH]c3c(c2-c2ccccc2)C(=O)NCC3(C)C)ccn1)c1ccc(F)cc1` (single isomer, unassigned) [Example 47, N-[4-(7,7-dimethyl-4-oxo-3-phenyl-4,5,6,7-tetrahydro-1H-pyrrolo[3,2-c]pyridin-2-yl)pyridin-2-yl]-2-(4-fluorophenyl)propanamide] has an IC50 (CSNK1D) of 9.6 nM and an IC50 (CSNK1A1) of 13 nM.
For `CC(C(=O)Nc1cc(-c2[nH]c3c(c2-c2ccccc2)C(=O)NCC3(C)C)ccn1)c1ccc(F)cc1` (single isomer, unassigned) [Example 48, N-[4-(7,7-dimethyl-4-oxo-3-phenyl-4,5,6,7-tetrahydro-1H-pyrrolo[3,2-c]pyridin-2-yl)pyridin-2-yl]-2-(4-fluorophenyl)propanamide], the IC50 (CSNK1D) was 2.9 nM and the IC50 (CSNK1A1) was 1.8 nM.
`CC(C(=O)Nc1cc(-c2[nH]c3c(CC(F)(F)F)cn(C)c(=O)c3c2-c2ccccc2)ccn1)c1ccc(F)cc1` (single isomer, unassigned; (+)) [Example 15, (+)-2-(4-fluorophenyl)-N-{4-[5-methyl-4-oxo-3-phenyl-7-(2,2,2-trifluoroethyl)-4,5-dihydro-1H-pyrrolo[3,2-c]pyridin-2-yl]pyridin-2-yl}propanamide] gave an IC50 (CSNK1D) of 2.8 nM and an IC50 (CSNK1A1) of 2.3 nM.
Work on `Cn1cc(CC(F)(F)F)c2[nH]c(-c3ccnc(NC(=O)C(CC(F)F)c4ccc(F)cc4)c3)c(-c3ccccc3)c2c1=O` (single isomer, unassigned; (+)) [Example 20, (+)-4,4-difluoro-2-(4-fluorophenyl)-N-{4-[5-methyl-4-oxo-3-phenyl-7-(2,2,2-trifluoroethyl)-4,5-dihydro-1H-pyrrolo[3,2-c]pyridin-2-yl]pyridin-2-yl}butanamide] yielded an IC50 (CSNK1D) of 12 nM and an IC50 (CSNK1A1) of 14 nM.
